# Test results taken from US20250333405A1, “ANTAGONISTS OF GPR39 PROTEIN” (VASOCARDEA, INC., priority 2024, published 2025).
# Molecular target: T1, human GPR39 receptor (Homo sapiens, UniProt O43194)
# T1 construct: PC3 Cells, Expressing the Endogenous Human GPR39 Receptor; endogenous in cells; host or cells: PC3 (human prostate adenocarcinoma) cells
# T1 sequence (O43194 1-453): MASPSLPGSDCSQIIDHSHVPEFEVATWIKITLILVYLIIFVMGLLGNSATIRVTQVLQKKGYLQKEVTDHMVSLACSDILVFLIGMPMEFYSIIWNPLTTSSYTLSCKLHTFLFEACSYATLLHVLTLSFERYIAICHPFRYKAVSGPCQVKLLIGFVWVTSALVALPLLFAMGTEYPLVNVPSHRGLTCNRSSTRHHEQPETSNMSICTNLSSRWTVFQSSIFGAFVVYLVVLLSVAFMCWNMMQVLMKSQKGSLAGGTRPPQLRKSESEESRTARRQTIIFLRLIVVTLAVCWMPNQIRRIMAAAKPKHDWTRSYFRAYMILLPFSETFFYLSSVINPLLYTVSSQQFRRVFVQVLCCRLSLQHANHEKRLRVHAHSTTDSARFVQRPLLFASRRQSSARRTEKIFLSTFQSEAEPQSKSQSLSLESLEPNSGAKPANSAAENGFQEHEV
# Test: Intracellular calcium response (FLIPR, Calcium-6) in PC3 cells, antagonism of agonist C3 (TC-G 1008) at EC90
# Format: cell-based
# Details: functional pKi (-Log10Ki) by modified Cheng-Prusoff from IC50; PC3 cells endogenously expressing human GPR39; 30 μM ZnCl2; agonist C3 (TC-G 1008) at EC90 1.5 μM; read-out: fpKi activity
# Method: Measurement of Intracellular Calcium Response in PC3 Cells, Expressing the Endogenous Human GPR39 Receptor
# Human prostate adenocarcinoma (PC3) cells endogenously expressing human GPR39 receptor were seeded into black walls clear-base 384-well plates at a density of 7,500 cells per well in DMEM (Low Glucose) supplemented with 10% heat-inactivated foetal bovine serum and 1% of Pen/Strep and grown overnight at 37° C., 5% CO2. After washing with assay buffer (20 mM HEPES, 137 mM NaCl, 5.4 mM KCl, 10 mM glucose, 0.8 mM MgSO4, 1.3 mM CaCl2), 0.3 mM Na2HPO4, 0.4 mM KH2PO4 4.2 mM NaHCO3, pH 7.4), cells were incubated with Calcium-6 probe (Molecular Devices) at 37° C. for 2 h and then equilibrated at RT for 30 minutes on metal block. The fluorescence was measured in real time by Fluorometric Imaging Plate Reader (FLIPR TETRA, Molecular Devices) (excitation wavelength at 470-495 nm, emission wavelength at 515-575 nm). Compounds of invention were serially diluted in neat DMSO at 1000 fold concentrations and plated into 384-well plates and then 200-fold diluted in assay buffer containing 150 μM ZnCl2 (30 μM final concentration) and 1.1% DMSO (0.32% final concentration). A dual addition FLIPR protocol was used which included a first addition of compounds 200-fold diluted in Assay Buffer containing 150 μM ZnCl2 and 1.1% DMSO and then after 10 minutes a second addition of a submaximal concentration of the hGPR39 receptor agonist, C3 (Tocris, TC-G 1008) at EC90 (concentration producing 90% of the maximal response) value of 1.5 μM. Fluorescence was monitored throughout the run assay. The peak of Ca2+ stimulation (baseline subtracted) was expressed as percentage of the maximal inhibition of the EC90 C3 response and was plotted versus the concentration of test compound. Curve fitting and IC50 estimations are carried out using a four-parameter logistic model using XLfit Software. […] An fpKi less than 5.2 is reported as “+/−”. An fpKi ranging from 5.2 to 5.9 is reported as “+”. An fpKi from 6.0 to 6.5 is reported as “++”. An fpKi from 6.6 to 7.2 is reported as “+++”. An fpKi equal to or greater than 7.3 is reported as “++++”.
row,SMILES,Ki [nM]
1,"Cc1nnc(-c2ccc(C(=O)N3CCC4(CC3)CC4)c(-c3cnn(C(C)C)c3)c2)[nH]1 [Example 49, 6-azaspiro[2.5]octan-6-yl-[4-(5-methyl-4H-1,2,4-triazol-3-yl)-2-(1-propan-2-ylpyrazol-4-yl)phenyl]methanone]",316 to 1000
2,"Cc1nnc(-c2ccc(C(=O)N3CCC4(CC3)CC4)c(-c3ccn(C(C)C)n3)c2)[nH]1 [Example 50, 6-azaspiro[2.5]octan-6-yl-[4-(5-methyl-4H-1,2,4-triazol-3-yl)-2-(1-propan-2-ylpyrazol-3-yl)phenyl]methanone]",≤ 50.1
3,"Cc1nnc(-c2ccc(C(=O)N3CCC(F)(F)CC3)c(-c3ccn(C(C)C)n3)c2)[nH]1 [Example 51, (4,4-difluoropiperidin-1-yl)-[4-(5-methyl-4H-1,2,4-triazol-3-yl)-2-(1-propan-2-ylpyrazol-3-yl)phenyl]methanone]",≤ 50.1
4,"Cc1nnc(-c2ccc(C(=O)N3CC4(C3)CC(F)(F)C4)c(-c3ccn(C(C)C)n3)c2)[nH]1 [Example 52, (6,6-difluoro-2-azaspiro[3.3]heptan-2-yl)-[2-(1-isopropylpyrazol-3-yl)-4-(5-methyl-4H-1,2,4-triazol-3-yl)phenyl]methanone]",≤ 50.1
5,"Cc1nnc(-c2ccc(C(=O)N3CCC(C(F)(F)F)CC3)c(-c3ccn(C(C)(C)C)n3)c2)[nH]1 [Example 53, [2-(1-tert-butylpyrazol-3-yl)-4-(5-methyl-4H-1,2,4-triazol-3-yl)phenyl]-[4-(trifluoromethyl)-1-piperidyl]methanone]",≤ 50.1
6,"Cc1nnc(-c2ccc(C(=O)N3CCC(F)(F)CC3)c(-c3ccn(C(C)(C)C)n3)c2)[nH]1 [Example 54, [2-(1-tert-butylpyrazol-3-yl)-4-(5-methyl-4H-1,2,4-triazol-3-yl)phenyl]-(4,4-difluoropiperidin-1-yl)methanone]",≤ 50.1
7,"Cc1nnc(-c2ccc(C(=O)N3CCC(F)(F)CC3)c(-c3ccn(C4CCC4)n3)c2)[nH]1 [Example 55, [2-(1-cyclobutylpyrazol-3-yl)-4-(5-methyl-4H-1,2,4-triazol-3-yl)phenyl]-(4,4-difluoropiperidin-1-yl)methanone]",≤ 50.1
8,"Cc1nnc(-c2ccc(C(=O)N3CCC(OC(F)(F)F)CC3)c(-c3ccn(C(C)C)n3)c2)[nH]1 [Example 56, 1-[4-(5-methyl-4H-1,2,4-triazol-3-yl)-2-[1-(propan-2-yl)-1H-pyrazol-3-yl]benzoyl]-4-(trifluoromethoxy) piperidine]",≤ 50.1
9,"COC1CCN(C(=O)c2ccc(-c3nnc(C)[nH]3)cc2-c2ccn(C(C)C)n2)CC1 [Example 58, (4-methoxypiperidin-1-yl)-[4-(5-methyl-4H-1,2,4-triazol-3-yl)-2-(1-propan-2-ylpyrazol-3-yl)phenyl]methanone]",≤ 50.1
10,"CCn1ccc(-c2cc(-c3nnc(C)[nH]3)ccc2C(=O)N2CCC(F)(F)CC2)n1 [Example 59, (4,4-difluoro-1-piperidyl)-[2-(1-ethylpyrazol-3-yl)-4-(5-methyl-4H-1,2,4-triazol-3-yl)phenyl]methanone]",≤ 50.1
11,"Cc1nnc(-c2ccc(C(=O)N3CCC(F)(F)CC3)c(-c3ccn(C4COC4)n3)c2)[nH]1 [Example 60, (4,4-difluoro-1-piperidyl)-[4-(5-methyl-4H-1,2,4-triazol-3-yl)-2-[1-(oxetan-3-yl)pyrazol-3-yl]phenyl]methanone]",≤ 50.1
12,"Cc1nnc(-c2ccc(C(=O)N3CCC(C)CC3)c(-c3ccn(C(C)C)n3)c2)[nH]1 [Example 61, (4-methylpiperidin-1-yl)-[4-(5-methyl-4H-1,2,4-triazol-3-yl)-2-(1-propan-2-ylpyrazol-3-yl)phenyl]methanone]",≤ 50.1
13,"Cc1nnc(-c2ccc(C(=O)N3CCC(C)CC3)c(-c3nc(C(F)(F)F)cs3)c2)[nH]1 [Example 62, (4-methyl-1-piperidyl)-[4-(5-methyl-4H-1,2,4-triazol-3-yl)-2-[4-(trifluoromethyl)thiazol-2-yl]phenyl]methanone]",≤ 50.1
14,"Cc1nnc(-c2ccc(C(=O)N3CCC(C)CC3)c(-c3cccc(C4CC4)n3)c2)[nH]1 [Example 63, [2-(6-cyclopropyl-2-pyridyl)-4-(5-methyl-4H-1,2,4-triazol-3-yl)phenyl]-(4-methyl-1-piperidyl)methanone]",≤ 50.1
15,"Cc1nnc(-c2ccc(C(=O)N3CCC(C)CC3)c(-c3ccn(C(C)(C)C)n3)c2)[nH]1 [Example 64, [2-(1-tert-butylpyrazol-3-yl)-4-(5-methyl-4H-1,2,4-triazol-3-yl)phenyl]-(4-methyl-1-piperidyl)methanone]",≤ 50.1
16,"Cc1nnc(-c2ccc(C(=O)N3CCC(C)(F)CC3)c(-c3cccc(C4CC4)n3)c2)[nH]1 [Example 65, [2-(6-cyclopropyl-2-pyridyl)-4-(5-methyl-4H-1,2,4-triazol-3-yl)phenyl]-(4-fluoro-4-methyl-1-piperidyl)methanone]",≤ 50.1
17,"COC1(C)CCN(C(=O)c2ccc(-c3nnc(C)[nH]3)cc2-c2ccn(C(C)(C)C)n2)CC1 [Example 66, [2-(1-tert-butylpyrazol-3-yl)-4-(5-methyl-4H-1,2,4-triazol-3-yl)phenyl]-(4-methoxy-4-methyl-1-piperidyl)methanone]",≤ 50.1
18,"COC1(C)CCN(C(=O)c2ccc(-c3nnc(C)[nH]3)cc2-c2nc(C(F)(F)F)cs2)CC1 [Example 67, (4-methoxy-4-methyl-1-piperidyl)-[4-(5-methyl-4H-1,2,4-triazol-3-yl)-2-[4-(trifluoromethyl)thiazol-2-yl]phenyl]methanone]",≤ 50.1
19,"Cc1cc(C(F)(F)F)nc(-c2cc(-c3nnc(C)[nH]3)ccc2C(=O)N2CCC(C(F)(F)F)CC2)n1 [Example 68, [4-(5-methyl-4H-1,2,4-triazol-3-yl)-2-[4-methyl-6-(trifluoromethyl)pyrimidin-2-yl]phenyl]-[4-(trifluoromethyl)-1-piperidyl]methanone]",≤ 50.1
20,"Cc1nnc(-c2ccc(C(=O)N3CCC(C(F)(F)F)CC3)c(-c3nc(C4CC4)cs3)c2)[nH]1 [Example 69, [2-(4-cyclopropylthiazol-2-yl)-4-(5-methyl-4H-1,2,4-triazol-3-yl)phenyl]-[4-(trifluoromethyl)-1-piperidyl]methanone]",≤ 50.1
21,"Cc1nnc(-c2ccc(C(=O)N3CCC(C(F)(F)F)CC3)c(-c3cccc(C(C)C)n3)c2)[nH]1 [Example 70, [2-(6-isopropyl-2-pyridyl)-4-(5-methyl-4H-1,2,4-triazol-3-yl)phenyl]-[4-(trifluoromethyl)-1-piperidyl]methanone]",≤ 50.1
22,"Cc1nnc(-c2ccc(C(=O)N3CCC(C(F)(F)F)CC3)c(-c3cccc(C4CC4)n3)c2)[nH]1 [Example 71, [2-(6-cyclopropylpyridin-2-yl)-4-(5-methyl-4H-1,2,4-triazol-3-yl)phenyl]-[4-(trifluoromethyl)piperidin-1-yl]methanone]",≤ 50.1
23,"Cc1nnc(-c2ccc(C(=O)N3CCC(C(F)(F)F)CC3)c(-c3nc(C(F)(F)F)cs3)c2)[nH]1 [Example 72, [4-(5-methyl-4H-1,2,4-triazol-3-yl)-2-[4-(trifluoromethyl)-1,3-thiazol-2-yl]phenyl]-[4-(trifluoromethyl)piperidin-1-yl]methanone]",≤ 50.1
24,"Cc1nnc(-c2ccc(C(=O)N3CCC(C(F)(F)F)CC3)c(-c3cccc(C(F)(F)F)n3)c2)[nH]1 [Example 73, [4-(5-methyl-4H-1,2,4-triazol-3-yl)-2-[6-(trifluoromethyl)pyridin-2-yl]phenyl]-[4-(trifluoromethyl)piperidin-1-yl]methanone]",≤ 50.1
25,Cc1nnc(-c2ccc(C(=O)N3CCC(F)(F)CC3)c(-c3cccc(C(C)C)n3)c2)[nH]1 [Example 74],≤ 50.1
